Measured values taken from patent US10544178B2, “Metal complex compound and preparing method and usage thereof” (National Changhua University of Education, priority 2018, dated 2020).

Legend:
[1] = test system: PC-3 prostatic cancer cell
Experimental: (§1) Pharmacology Research: cytotoxicity research upon PC-3 prostatic cancer and DU145 breast cancer
(§2) Human cell HRMPC performing cell activity of PC-3 prostatic cancer and DU145 breast cancer is placed into PRMI1640 culture medium to be cultured under a temperature of 37° C. in a 5% CO2/95% air. The PRMI1640 culture medium contains 10% FBS and penicillin (100 U/ml)/streptomycin (100 U/ml).
(§3) Subsequently, the cell survivability is quantified through colorimetry (Sulforhodamine B Assay).

Experimental for DU145 breast cancer cell: as §1, §2, §3

Substance | IC50 (DU145 breast cancer cell) [µM] | IC50 [1] [µM]
para-methylisopropylphenylchloride-1-carbonyl-3-[(2,6-diisopropyl)n-phenyl]-1-phenyl-2-butyleneruthenium [Embodiment 3] | 5.37 ± 0.06 | 2.39 ± 0.13
para-methylisopropylphenylchloride-1-carbonyl-3-n-phenyl-1-phenyl-2-butyleneruthenium [Embodiment 1] | 9.31 ± 1.48 | 5.66 ± 0.2
para-methylisopropylphenylchloride-2-(2-indazolyl)1-phenyl-1-oxyethylruthenium [Embodiment 7] | > 30 | 
para-methylisopropylphenylchloride-2-[1-(2-naphthyl)azomethine]phenoxyruthenium [Embodiment 5] | 14.2 ± 0.35 | 4.58 ± 0.32
para-methylisopropylphenylchloride-2-[1-para-tolueneimino]phenoxyruthenium [Embodiment 4] | 13.1 ± 0.95 | 3.01 ± 1.17
para-methylisopropylphenylchloride-1-carbonyl-3-[(2-methoxyl) n-phenyl]-1-phenyl-2-butyleneruthenium [Embodiment 2] | 14.3 ± 0.28 | 5.68 ± 0.12
para-methylisopropylphenylchloride-1-(para-diethylaminophenyl)-3-[(1-methyl-3-indazolyl)imino]-1-oxypropylruthenium [Embodiment 6] | > 30 | > 30
